{
  "source": "ChEMBL document CHEMBL1157121",
  "about": "“Diterpenoids from the feces of Trogopterus xanthipes” (J Nat Prod, 2010)",
  "type_in_all_cases": "functional, cell-based",
  "key": {"[1]": {"tested_on": "HepG2", "assay": "Cytotoxicity against human HepG2 cells after 48 hrs by MTT assay", "conditions": "HepG2, 48 h"}, "[2]": {"tested_on": "HL-60", "assay": "Cytotoxicity against human HL60 cells after 48 hrs by MTT assay", "conditions": "HL-60, 48 h"}, "[3]": {"tested_on": "U-937", "assay": "Cytotoxicity against human U937 cells after 48 hrs by MTT assay", "conditions": "U-937, 48 h"}, "[4]": {"tested_on": "Jurkat", "assay": "Cytotoxicity against human Jurkat cells after 48 hrs by MTT assay"}},
  "data": [
    {"smiles": "C=C[C@@]1(C)CC[C@H]2[C@@](O)(CC[C@H]3C(C)(C)C(=O)CC[C@@]32C)C1", "values": [
      {"measurement": "IC50", "setting": "[1]", "result": "> 40", "unit": "µM"},
      {"measurement": "IC50", "setting": "[2]", "result": "> 40", "unit": "µM"},
      {"measurement": "IC50", "setting": "[3]", "result": "> 40", "unit": "µM"},
      {"measurement": "IC50", "setting": "[4]", "result": "> 40", "unit": "µM"}
    ]},
    {"smiles": "CC(C)c1c(O)ccc2c1CC[C@H]1C(C)(C)[C@@H](O)CC[C@]21C", "values": [
      {"measurement": "IC50", "setting": "[1]", "result": "> 40", "unit": "µM"},
      {"measurement": "IC50", "setting": "[2]", "result": 24.3, "unit": "µM"},
      {"measurement": "IC50", "setting": "[3]", "result": 24.7, "unit": "µM"},
      {"measurement": "IC50", "setting": "[4]", "result": "> 40", "unit": "µM"}
    ]},
    {"smiles": "C=C[C@]1(C)C=C2CC[C@H]3[C@H](C)C(=O)CC[C@]3(C)[C@H]2CC1", "values": [
      {"measurement": "IC50", "setting": "[1]", "result": "> 40", "unit": "µM"},
      {"measurement": "IC50", "setting": "[2]", "result": "> 40", "unit": "µM"},
      {"measurement": "IC50", "setting": "[3]", "result": "> 40", "unit": "µM"},
      {"measurement": "IC50", "setting": "[4]", "result": "> 40", "unit": "µM"}
    ]},
    {"smiles": "C=C[C@@]1(C)CC[C@H]2C(=CC[C@H]3C(C)(C)C(=O)CC[C@]23C)C1", "values": [
      {"measurement": "IC50", "setting": "[1]", "result": 32.9, "unit": "µM"},
      {"measurement": "IC50", "setting": "[2]", "result": "> 40", "unit": "µM"},
      {"measurement": "IC50", "setting": "[3]", "result": "> 40", "unit": "µM"},
      {"measurement": "IC50", "setting": "[4]", "result": "> 40", "unit": "µM"}
    ]},
    {"smiles": "C=C[C@]1(C)C=C2CC[C@H]3C(C)(C)C(=O)CC[C@]3(C)[C@H]2CC1", "values": [
      {"measurement": "IC50", "setting": "[1]", "result": "> 40", "unit": "µM"},
      {"measurement": "IC50", "setting": "[2]", "result": "> 40", "unit": "µM"},
      {"measurement": "IC50", "setting": "[3]", "result": "> 40", "unit": "µM"},
      {"measurement": "IC50", "setting": "[4]", "result": "> 40", "unit": "µM"}
    ]},
    {"smiles": "C=C[C@@]1(C)CCC2=C(CC[C@H]3C(C)(C)[C@@H](O)CC[C@]23C)C1", "values": [
      {"measurement": "IC50", "setting": "[1]", "result": "> 40", "unit": "µM"},
      {"measurement": "IC50", "setting": "[2]", "result": "> 40", "unit": "µM"},
      {"measurement": "IC50", "setting": "[3]", "result": "> 40", "unit": "µM"},
      {"measurement": "IC50", "setting": "[4]", "result": "> 40", "unit": "µM"}
    ]},
    {"smiles": "C=C[C@@]1(C)CC[C@H]2[C@@](O)(CC[C@H]3[C@@](C)(CO)CCC[C@@]32C)C1", "note": "[AKHDARDIOL]", "values": [
      {"measurement": "IC50", "setting": "[1]", "result": "> 40", "unit": "µM"},
      {"measurement": "IC50", "setting": "[2]", "result": "> 40", "unit": "µM"},
      {"measurement": "IC50", "setting": "[3]", "result": "> 40", "unit": "µM"},
      {"measurement": "IC50", "setting": "[4]", "result": "> 40", "unit": "µM"}
    ]},
    {"smiles": "CC(C)c1cc2c(cc1O)[C@@]1(C)CCCC(C)(C)[C@@H]1CC2", "note": "[FERRUGINOL]", "values": [
      {"measurement": "IC50", "setting": "[1]", "result": "> 40", "unit": "µM"},
      {"measurement": "IC50", "setting": "[2]", "result": "> 40", "unit": "µM"},
      {"measurement": "IC50", "setting": "[3]", "result": 19.7, "unit": "µM"},
      {"measurement": "IC50", "setting": "[4]", "result": 35.1, "unit": "µM"}
    ]},
    {"smiles": "CC[C@@]1(O)C(=O)OCc2c1cc1n(c2=O)Cc2cc3cc(O)ccc3nc2-1", "note": "[HYDROXYCAMPTOTHECIN]", "values": [
      {"measurement": "IC50", "setting": "[1]", "result": 3.7, "unit": "µM"},
      {"measurement": "IC50", "setting": "[2]", "result": 0.04, "unit": "µM"},
      {"measurement": "IC50", "setting": "[3]", "result": 0.11, "unit": "µM"},
      {"measurement": "IC50", "setting": "[4]", "result": 0.03, "unit": "µM"}
    ]},
    {"smiles": "C=C[C@@]1(C)CC[C@H]2C(=CC[C@H]3C(C)(C)[C@@H](O)CC[C@]23C)C1", "note": "[ISOPIMARANE]", "values": [
      {"measurement": "IC50", "setting": "[1]", "result": "> 40", "unit": "µM"},
      {"measurement": "IC50", "setting": "[2]", "result": "> 40", "unit": "µM"},
      {"measurement": "IC50", "setting": "[3]", "result": "> 40", "unit": "µM"},
      {"measurement": "IC50", "setting": "[4]", "result": "> 40", "unit": "µM"}
    ]},
    {"smiles": "CC(C)c1ccc2c(c1O)C[C@@H](O)[C@H]1[C@@](C)(CO)CCC[C@]21C", "note": "[MACROPHYNIN E]", "values": [
      {"measurement": "IC50", "setting": "[1]", "result": "> 40", "unit": "µM"},
      {"measurement": "IC50", "setting": "[2]", "result": "> 40", "unit": "µM"},
      {"measurement": "IC50", "setting": "[3]", "result": "> 40", "unit": "µM"},
      {"measurement": "IC50", "setting": "[4]", "result": "> 40", "unit": "µM"}
    ]},
    {"smiles": "CC(C)c1cc2c(cc1O)CC[C@H]1C(C)(C)CCC[C@]21C", "note": "[SEMPERVIROL]", "values": [
      {"measurement": "IC50", "setting": "[1]", "result": "> 40", "unit": "µM"},
      {"measurement": "IC50", "setting": "[2]", "result": "> 40", "unit": "µM"},
      {"measurement": "IC50", "setting": "[3]", "result": "> 40", "unit": "µM"},
      {"measurement": "IC50", "setting": "[4]", "result": "> 40", "unit": "µM"}
    ]},
    {"smiles": "CC1=C2C=C[C@]34C[C@](C)(CC[C@@H]3[C@@]2(C)CCC1=O)C(=O)O4", "note": "[TROGOPTEROID A]", "values": [
      {"measurement": "IC50", "setting": "[1]", "result": "> 40", "unit": "µM"},
      {"measurement": "IC50", "setting": "[2]", "result": "> 40", "unit": "µM"},
      {"measurement": "IC50", "setting": "[3]", "result": "> 40", "unit": "µM"},
      {"measurement": "IC50", "setting": "[4]", "result": "> 40", "unit": "µM"}
    ]},
    {"smiles": "C=C[C@]1(C)C[C@]2(O)CC[C@H]3C(C)(C)C(=O)CC[C@]3(C)[C@H]2CC1=O", "note": "[TROGOPTEROID B]", "values": [
      {"measurement": "IC50", "setting": "[1]", "result": "> 40", "unit": "µM"},
      {"measurement": "IC50", "setting": "[2]", "result": "> 40", "unit": "µM"},
      {"measurement": "IC50", "setting": "[3]", "result": "> 40", "unit": "µM"},
      {"measurement": "IC50", "setting": "[4]", "result": "> 40", "unit": "µM"}
    ]},
    {"smiles": "C=C[C@]1(C)CC2(O)CC[C@H]3C(C)(C)C(=O)C=C[C@]3(C)[C@H]2CC1=O", "note": "(stereo partly specified) [TROGOPTEROID C]", "values": [
      {"measurement": "IC50", "setting": "[1]", "result": "> 40", "unit": "µM"},
      {"measurement": "IC50", "setting": "[2]", "result": "> 40", "unit": "µM"},
      {"measurement": "IC50", "setting": "[3]", "result": "> 40", "unit": "µM"},
      {"measurement": "IC50", "setting": "[4]", "result": "> 40", "unit": "µM"}
    ]},
    {"smiles": "CC(C)c1c(O)ccc2c1CC[C@H]1[C@@](C)(CO)C(=O)CC[C@]21C", "note": "[TROGOPTEROID D]", "values": [
      {"measurement": "IC50", "setting": "[1]", "result": "> 40", "unit": "µM"},
      {"measurement": "IC50", "setting": "[2]", "result": "> 40", "unit": "µM"},
      {"measurement": "IC50", "setting": "[3]", "result": "> 40", "unit": "µM"},
      {"measurement": "IC50", "setting": "[4]", "result": "> 40", "unit": "µM"}
    ]},
    {"smiles": "CC(C)c1c(O)ccc2c1C[C@@H](O)[C@H]1C(C)(C)C(=O)CC[C@]21C", "note": "[TROGOPTEROID E]", "values": [
      {"measurement": "IC50", "setting": "[1]", "result": "> 40", "unit": "µM"},
      {"measurement": "IC50", "setting": "[2]", "result": "> 40", "unit": "µM"},
      {"measurement": "IC50", "setting": "[3]", "result": "> 40", "unit": "µM"},
      {"measurement": "IC50", "setting": "[4]", "result": "> 40", "unit": "µM"}
    ]},
    {"smiles": "CC(C)c1cc2c(cc1O)C[C@@H](O)[C@H]1[C@@](C)(CO)CCC[C@]21C", "note": "[TROGOPTEROID F]", "values": [
      {"measurement": "IC50", "setting": "[1]", "result": "> 40", "unit": "µM"},
      {"measurement": "IC50", "setting": "[2]", "result": "> 40", "unit": "µM"},
      {"measurement": "IC50", "setting": "[3]", "result": "> 40", "unit": "µM"},
      {"measurement": "IC50", "setting": "[4]", "result": "> 40", "unit": "µM"}
    ]},
    {"smiles": "CC(C)c1c(O)ccc2c1CC[C@H]1[C@@](C)(CO)C(=O)C=C[C@]21C", "note": "[TROGOPTEROID G]", "values": [
      {"measurement": "IC50", "setting": "[1]", "result": "> 40", "unit": "µM"},
      {"measurement": "IC50", "setting": "[2]", "result": "> 40", "unit": "µM"},
      {"measurement": "IC50", "setting": "[3]", "result": "> 40", "unit": "µM"},
      {"measurement": "IC50", "setting": "[4]", "result": "> 40", "unit": "µM"}
    ]}
  ]
}
